Measured values: PubChem BioAssay (NCI)
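Each compound was tested at five concentrations against cells in 96-well plates for 48 hours. GI50 is the concentration that inhibits growth by half. At the TGI there is no net growth.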

Tested on: BT-549 breast
Assay: NCI-60 cell line screen, 48 h

First: O=C(O)c1cccc(COc2ccc([N+](=O)[O-])cc2Cl)c1
Second: CCCc1cc(=O)n2c(C(=O)Nc3ccc(Cl)cc3C)c(C(=O)Nc3ccc(F)cc3)sc2n1
The GI50 of the first is 1.9-fold higher: 53.4 µM for the first, 27.7 µM for the second.

Compared with `Cn1cc(-c2csc(-c3cn(CCCCN4CCCCC4)c4ccccc34)n2)c2cccnc21`, `O=C1c2ccccc2-c2c1c1ccccc1c(=O)n2CCN1CCNCC1` is 2.8-fold higher in GI50: 1.75 µM for the first, 4.96 µM for the second.

Compared with `COc1ccc(-c2cnnn2-c2nonc2-n2cccc2)cc1`, `c1coc(-c2c3ccc(=[N+]4CCCCC4)cc-3oc3cc(N4CCCCC4)ccc23)c1` is 3.7-fold lower in GI50: 0.698 µM for the first, 0.191 µM for the second.

First: CC1(C)CN=C(NN=C(/C=C/c2ccc(C(F)(F)F)cc2)/C=C/c2ccc(C(F)(F)F)cc2)NC1
Second: CCCC/C(=C\C1=C(C)C(=O)C(OC)=C(OC)C1=O)C(=O)O
The GI50 of the first is lower: 1.74 µM for the first, over 100 µM for the second.

`O=C(O)c1cccc(COc2ccc([N+](=O)[O-])cc2Cl)c1` and `COc1ccc(C(CC(=O)c2ccc3c(c2)OCO3)c2c(O)c3ccccc3oc2=O)cc1OC` (stereo not given) cannot be ordered by TGI: over 100 µM for the first, over 100 µM for the second.

`CCC(C)(O)c1cnc(CC(C)C)c(=O)n1O` (stereo not given) and `CCCC/C(=C\C1=C(C)C(=O)C(OC)=C(OC)C1=O)C(=O)O` cannot be ordered by TGI: over 100 µM for the first, over 100 µM for the second.

First: Cn1cc(-c2csc(-c3cn(CCCCN4CCCCC4)c4ccccc34)n2)c2cccnc21
Second: O=C1c2ccccc2-c2c1c1ccccc1c(=O)n2CCN1CCNCC1
The TGI of the first is 5.3-fold lower: 3.37 µM for the first, 17.8 µM for the second.

First: COc1ccc(-c2cnnn2-c2nonc2-n2cccc2)cc1
Second: CCCc1cc(=O)n2c(C(=O)Nc3ccc(Cl)cc3C)c(C(=O)Nc3ccc(F)cc3)sc2n1
The TGI of the first is 1.8-fold lower: 34.6 µM for the first, 61 µM for the second.

`COc1ccc(C(=O)c2cc(OC)c(OC)c(OC)c2)cc1OC` and `CCCC(=O)C1=C(O)C(Cc2c(O)c(C)c(O)c(C(=O)CCC)c2O)=C(O)C(C)(C)C1=O` cannot be ordered by TGI: over 100 µM for the first, over 50 µM for the second.

Compared with `CC1(C)CN=C(NN=C(/C=C/c2ccc(C(F)(F)F)cc2)/C=C/c2ccc(C(F)(F)F)cc2)NC1`, `c1coc(-c2c3ccc(=[N+]4CCCCC4)cc-3oc3cc(N4CCCCC4)ccc23)c1` is 4-fold lower in TGI: 3.46 µM for the first, 0.865 µM for the second.

`CCC/C=C/C=C/C1CC(O)C(O)C(=O)C1CO` (stereo not given) was tested, and the TGI was over 100 µM.

Tested on: NCI-H226 lung
Assay: NCI-60 cell line screen, 48 h

`Nc1ccccc1C(=O)/C=C/c1c(O)ccc2ccccc12` and `NC(=O)C(=O)CC(=O)c1ccccc1NC1=CC(=O)C(=O)c2ccccc21` cannot be ordered by TGI: over 100 µM for the first, over 100 µM for the second.

First: CCC1CN2CCc3cc(OC)c(OC)cc3C2CC1CC1c2cc(OC)c(OC)cc2CCN1C(=O)C1CCCN1 (stereo not given)
Second: COc1cc(/C=C2\[C@H]3c4c(c(OC)c(C)c(OC)c4OC)CC(C(=O)N2Cc2ccccc2)N3C)c(OC)c(C)c1OC
The TGI of the first is 4-fold higher: 96.7 µM for the first, 24 µM for the second.

`CC(C(=O)c1ccc(Cl)cc1)/C(=N/NC(=O)NN)C(=O)Nc1cccc(C(F)(F)F)c1` (stereo not given) and `O=C(CC(=O)C1CCOC1=O)C(=O)Nc1cccc(Cl)c1` (stereo not given) cannot be ordered by TGI: over 100 µM for the first, over 100 µM for the second.

`CCOP(=O)(OCC)C(C(=O)OC)C(=O)C(=O)Nc1ccc(Cl)cc1Cl` (stereo not given) and `COC(=O)C(=O)C(C(C)=O)C(=O)NCc1ccc(OC)c(OC)c1` (stereo not given) cannot be ordered by TGI: over 100 µM for the first, over 100 µM for the second.

`COc1ccc(-c2cnnn2-c2nonc2-n2cccc2)cc1` and `Cc1ccccc1C1=[N+]([O-])c2ccc(Cl)cc2C1=O` are within 1.5-fold of each other in TGI: 33.3 µM for the first, 30.6 µM for the second.

Compared with `COc1cccc(/C=N/[N-]C(=O)c2ccncc2)c1[O-].COc1cccc(/C=N/[N-]C(=O)c2ccncc2)c1[O-].[O]=[U](=[O])([OH2+])[OH2+]`, `COc1ccc(C(CC(=O)c2ccc3c(c2)OCO3)c2c(O)c3ccccc3oc2=O)cc1OC` (stereo not given) is higher in TGI: 28 µM for the first, over 100 µM for the second.

Compared with `CC(C)(C)c1ccc2c(c1)S(=O)(=O)Nc1ccc(Cl)cc1NS(=O)(=O)c1cc(C(C)(C)C)ccc1OCCOCCOCCO2`, `CC(=O)N1CCN(c2ccc(OCC3COC(Cn4ccnc4)(c4ccc(Cl)cc4Cl)O3)cc2)CC1` (stereo not given) is lower in TGI: over 100 µM for the first, 73.6 µM for the second.

`O=C1c2ccccc2-c2c1c1ccccc1c(=O)n2CCN1CCNCC1` and `CCN1c2ccccc2-c2c3c1cc(C)cc3c1ccccc1[n+]2CC` are within 1.5-fold of each other in TGI: 3.15 µM for the first, 3.69 µM for the second.

`N#CC(=Nc1ccccc1N(C(=O)c1ccccc1)C(=O)c1ccccc1)c1ccccc1` and `Cc1[nH]c2ccccc2c1C1Cc2ccccc2N1C(=O)C#Cc1ccc([N+](=O)[O-])cc1` (stereo not given) cannot be ordered by TGI: over 100 µM for the first, over 100 µM for the second.

`COc1c(C)n(CCO)ccc1=O` and `CC1=C(C#N)C(=O)CC(c2ccc(Cl)cc2)N(C)N1` (stereo not given) cannot be ordered by TGI: over 100 µM for the first, over 100 µM for the second.

Going from `Nc1c(-c2ccccc2-c2c(N)[n+]([O-])c3ccccc3[n+]2[O-])[n+]([O-])c2ccccc2[n+]1[O-]` to `O=C(Cc1nc2c3c(ccc2[nH]c1=O)C(=O)c1ccccc1C3=O)C(=O)Nc1ccccc1[N+](=O)[O-]`, the TGI falls from over 100 µM to 40.5 µM.

`CCOC(=O)NC(=O)c1cn(C(CC)COC(=O)NCCCCCCNC(=O)OCC(CC)n2cc(C(=O)NC(=O)OCC)c(=O)[nH]c2=O)c(=O)[nH]c1=O` (stereo not given) and `CCOC(=O)NC(=O)c1cn(C2CCCCC2)c(=O)[nH]c1=O` cannot be ordered by TGI: over 100 µM for the first, over 100 µM for the second.

Going from `Cc1cccc(C2=C/C(=C(\SS/C(C(=O)c3ccc(OCC(=O)O)c(Cl)c3Cl)=C3\C=C(c4cccc(C)c4)SS3)C(=O)c3ccc(OCC(=O)O)c(Cl)c3Cl)SS2)c1` to `COC(=O)/C([Se]c1c(C)cc(C)cc1C)=C(/[Se]c1c(C)cc(C)cc1C)C(=O)OC`, the TGI rises from 35.6 µM to over 100 µM.

First: CC1(C)CN=C(NN=C(/C=C/c2ccc(C(F)(F)F)cc2)/C=C/c2ccc(C(F)(F)F)cc2)NC1
Second: Cn1c(=O)nc2n(-c3cc(C(F)(F)F)cc(C(F)(F)F)c3)c3ccccc3nc-2c1=O
The TGI of the first is lower: 3.27 µM for the first, over 100 µM for the second.

Going from `COC(=O)/C(=N/O)C(C(=O)C=C(C)C)C(=O)C(=O)Nc1nc2ccc([N+](=O)[O-])cc2s1` (stereo not given) to `CCC/C=C/C=C/C1CC(O)C(O)C(=O)C1CO` (stereo not given), the TGI rises from 72.1 µM to over 100 µM.

In the case of `c1coc(-c2c3ccc(=[N+]4CCCCC4)cc-3oc3cc(N4CCCCC4)ccc23)c1`, the TGI is reported as 1.87 µM.

First: COc1ccc(-c2cnnn2-c2nonc2-n2cccc2)cc1
Second: O=C1c2ccccc2-c2c1c1ccccc1c(=O)n2CCN1CCNCC1
The GI50 of the first is 1.5-fold lower: 0.705 µM for the first, 1.06 µM for the second.

Going from `COc1cccc(/C=N/[N-]C(=O)c2ccncc2)c1[O-].COc1cccc(/C=N/[N-]C(=O)c2ccncc2)c1[O-].[O]=[U](=[O])([OH2+])[OH2+]` to `CC1(C)CN=C(NN=C(/C=C/c2ccc(C(F)(F)F)cc2)/C=C/c2ccc(C(F)(F)F)cc2)NC1`, the GI50 falls from 5.01 µM to 1.51 µM (3.3-fold).

Work on `c1coc(-c2c3ccc(=[N+]4CCCCC4)cc-3oc3cc(N4CCCCC4)ccc23)c1` yielded a GI50 of 0.138 µM.

Tested on: T-47D breast
Assay: NCI-60 cell line screen, 48 h

Going from `O=C(O)c1cccc(COc2ccc([N+](=O)[O-])cc2Cl)c1` to `CCCc1cc(=O)n2c(C(=O)Nc3ccc(Cl)cc3C)c(C(=O)Nc3ccc(F)cc3)sc2n1`, the GI50 falls from over 100 µM to 20 µM.

Going from `Cn1cc(-c2csc(-c3cn(CCCCN4CCCCC4)c4ccccc34)n2)c2cccnc21` to `O=C1c2ccccc2-c2c1c1ccccc1c(=O)n2CCN1CCNCC1`, the GI50 falls from 14.3 µM to 2.4 µM (6-fold).

Going from `CC1(C)CN=C(NN=C(/C=C/c2ccc(C(F)(F)F)cc2)/C=C/c2ccc(C(F)(F)F)cc2)NC1` to `CCCC/C(=C\C1=C(C)C(=O)C(OC)=C(OC)C1=O)C(=O)O`, the GI50 rises from 1.49 µM to 33.2 µM (22-fold).

`O=C(O)c1cccc(COc2ccc([N+](=O)[O-])cc2Cl)c1` and `COc1ccc(C(CC(=O)c2ccc3c(c2)OCO3)c2c(O)c3ccccc3oc2=O)cc1OC` (stereo not given) cannot be ordered by TGI: over 100 µM for the first, over 100 µM for the second.

First: CCC(C)(O)c1cnc(CC(C)C)c(=O)n1O (stereo not given)
Second: CCCC/C(=C\C1=C(C)C(=O)C(OC)=C(OC)C1=O)C(=O)O
The TGI of the first is higher: over 100 µM for the first, 94.3 µM for the second.

First: Cn1cc(-c2csc(-c3cn(CCCCN4CCCCC4)c4ccccc34)n2)c2cccnc21
Second: O=C1c2ccccc2-c2c1c1ccccc1c(=O)n2CCN1CCNCC1
The TGI of the first is 2.5-fold higher: 40.3 µM for the first, 16.2 µM for the second.

`CCCc1cc(=O)n2c(C(=O)Nc3ccc(Cl)cc3C)c(C(=O)Nc3ccc(F)cc3)sc2n1` and `CCCC(=O)C1=C(O)C(Cc2c(O)c(C)c(O)c(C(=O)CCC)c2O)=C(O)C(C)(C)C1=O` cannot be ordered by TGI: 132 µM for the first, over 50 µM for the second.

First: CC1(C)CN=C(NN=C(/C=C/c2ccc(C(F)(F)F)cc2)/C=C/c2ccc(C(F)(F)F)cc2)NC1
Second: CCC/C=C/C=C/C1CC(O)C(O)C(=O)C1CO (stereo not given)
The TGI of the first is lower: 3.03 µM for the first, over 100 µM for the second.

Tested on: SF-268 CNS
Assay: NCI-60 cell line screen, 48 h

`O=C(O)c1cccc(COc2ccc([N+](=O)[O-])cc2Cl)c1` and `CCCc1cc(=O)n2c(C(=O)Nc3ccc(Cl)cc3C)c(C(=O)Nc3ccc(F)cc3)sc2n1` are within 1.5-fold of each other in GI50: 7.71 µM for the first, 6.62 µM for the second.

Compared with `Cn1cc(-c2csc(-c3cn(CCCCN4CCCCC4)c4ccccc34)n2)c2cccnc21`, `O=C1c2ccccc2-c2c1c1ccccc1c(=O)n2CCN1CCNCC1` is 3.4-fold higher in GI50: 1.71 µM for the first, 5.83 µM for the second.

Compared with `COc1ccc(-c2cnnn2-c2nonc2-n2cccc2)cc1`, `COc1cccc(/C=N/[N-]C(=O)c2ccncc2)c1[O-].COc1cccc(/C=N/[N-]C(=O)c2ccncc2)c1[O-].[O]=[U](=[O])([OH2+])[OH2+]` is 9.3-fold higher in GI50: 0.52 µM for the first, 4.83 µM for the second.

Compared with `O=C(O)c1cccc(COc2ccc([N+](=O)[O-])cc2Cl)c1`, `CC(C(=O)c1ccc(Cl)cc1)/C(=N/NC(=O)NN)C(=O)Nc1cccc(C(F)(F)F)c1` (stereo not given) is higher in TGI: 85.6 µM for the first, over 100 µM for the second.

Going from `Nc1ccccc1C(=O)/C=C/c1c(O)ccc2ccccc12` to `O=C1c2ccccc2-c2c1c1ccccc1c(=O)n2CCN1CCNCC1`, the TGI falls from over 100 µM to 26.4 µM.

`CCC(C)(O)c1cnc(CC(C)C)c(=O)n1O` (stereo not given) and `COc1c(C)n(CCO)ccc1=O` cannot be ordered by TGI: over 100 µM for the first, over 100 µM for the second.

First: CCC1CN2CCc3cc(OC)c(OC)cc3C2CC1CC1c2cc(OC)c(OC)cc2CCN1C(=O)C1CCCN1 (stereo not given)
Second: COc1ccc(C(=O)c2cc(OC)c(OC)c(OC)c2)cc1OC
The TGI of the first is lower: 65.2 µM for the first, over 100 µM for the second.

Going from `CCOP(=O)(OCC)C(C(=O)OC)C(=O)C(=O)Nc1ccc(Cl)cc1Cl` (stereo not given) to `CCCc1cc(=O)n2c(C(=O)Nc3ccc(Cl)cc3C)c(C(=O)Nc3ccc(F)cc3)sc2n1`, the TGI falls from over 100 µM to 24.9 µM.

Going from `Cn1cc(-c2csc(-c3cn(CCCCN4CCCCC4)c4ccccc34)n2)c2cccnc21` to `COc1ccc(-c2cnnn2-c2nonc2-n2cccc2)cc1`, the TGI rises from 3.37 µM to 27.6 µM (8.2-fold).

Going from `CC(C)=C1CCC(CN(C)C)C1=O` (stereo not given) to `CC(C)(C)c1ccc2c(c1)S(=O)(=O)Nc1ccc(Cl)cc1NS(=O)(=O)c1cc(C(C)(C)C)ccc1OCCOCCOCCO2`, the TGI rises from 97.3 µM to over 100 µM.

Compared with `COc1cccc(/C=N/[N-]C(=O)c2ccncc2)c1[O-].COc1cccc(/C=N/[N-]C(=O)c2ccncc2)c1[O-].[O]=[U](=[O])([OH2+])[OH2+]`, `N#CC(=Nc1ccccc1N(C(=O)c1ccccc1)C(=O)c1ccccc1)c1ccccc1` is higher in TGI: 49.4 µM for the first, over 100 µM for the second.
